Data taken from publication PMC7316778 (Nature Communications, 2020).
Several values for one entry are separate records, joined by “and”; a condition that tells them apart may be missing. Identical values can stand only once.

Tests used:
FES^WT = molecular target: T1, FES^WT (Homo sapiens, UniProt P07332); experiment: In vitro TR-FRET kinase assay; assay type: biochemical; settings: for IC50: TR-FRET assay, 5 µM ATP, n = 3, read-out: pIC50 FES^WT (converted)
T1 construct: human FES cDNA encoding residues 448–822 or human FER cDNA encoding residues 448–820 was amplified by PCR; made in house; host or cells: E. coli BL21(DE3), co-expressing YopH phosphatase
T1 sequence (P07332 448-822): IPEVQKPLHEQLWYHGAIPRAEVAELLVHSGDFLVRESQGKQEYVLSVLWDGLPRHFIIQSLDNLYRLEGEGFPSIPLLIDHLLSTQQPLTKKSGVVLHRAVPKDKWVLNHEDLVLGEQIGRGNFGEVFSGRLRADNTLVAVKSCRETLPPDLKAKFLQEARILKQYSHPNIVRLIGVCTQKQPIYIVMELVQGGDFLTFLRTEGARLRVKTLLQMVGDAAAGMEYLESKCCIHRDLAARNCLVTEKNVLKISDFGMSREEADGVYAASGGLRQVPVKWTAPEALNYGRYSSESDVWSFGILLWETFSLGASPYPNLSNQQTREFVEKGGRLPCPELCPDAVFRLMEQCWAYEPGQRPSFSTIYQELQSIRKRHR
Method: All measurements were performed in triplicate.

FER^WT = FER^WT (Homo sapiens, UniProt P16591); experiment: In vitro TR-FRET kinase assay
Chain of FER^WT (P16591 448-820): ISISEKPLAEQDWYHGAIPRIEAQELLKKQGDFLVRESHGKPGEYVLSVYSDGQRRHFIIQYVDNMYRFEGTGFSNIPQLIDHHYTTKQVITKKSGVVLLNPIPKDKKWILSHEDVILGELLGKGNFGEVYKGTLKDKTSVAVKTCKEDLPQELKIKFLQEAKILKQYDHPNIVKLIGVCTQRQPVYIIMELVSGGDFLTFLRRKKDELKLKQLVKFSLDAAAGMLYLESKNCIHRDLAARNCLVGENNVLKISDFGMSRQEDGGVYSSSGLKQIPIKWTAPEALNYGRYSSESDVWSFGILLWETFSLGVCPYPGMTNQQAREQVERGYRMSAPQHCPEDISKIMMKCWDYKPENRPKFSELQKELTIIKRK

[1] = system: FES^S700C HL-60 neutrophils; experiment: Phagocytosis assay with GFP-expressing E. coli; assay type: cell-based, human; settings: for GFP-positive cells (%): Sup. Fig. 15a; for Mean GFP intensity (RFU): Sup. Fig. 15b
Method: HL-60 cells were differentiated to neutrophils as described above. Cells were counted and centrifuged (200g, 5 min), followed by resuspension in growth medium without antibiotics. Cells were incubated with vehicle or inhibitor (from 1000x concentrated stocks in DMSO) for 1 h at 37 °C prior to infection (1×10^6 cells in 900 µL in 12-well plate). Meanwhile, E. coli B834(DE3) constitutively expressing GFP^A206K were grown in LB medium to an OD600 of 0.4–1.0, after which bacteria were centrifuged (2000g, 5 min), washed and resuspended in PBS to appropriate density. Neutrophils were infected by addition of bacteria at multiplicity of infection (MOI) of 30 unless stated otherwise. Cells were then incubated for 1 h at 37 °C unless stated otherwise, after which cells were resuspended and transferred to Eppendorf tubes, washed in FACS buffer (1 mL, 500g, 3 min) and fixed in 1% PFA in PBS (15 min, 4 °C, in the dark). Samples were further processed as described above.
Events (generally 20,000 per condition) were gated by forward and side scatter (cells), side scatter area (singlets) and the percentage of GFP-positive cells and GFP mean fluorescence intensity (MFI) were determined based on background fluorescence for non-infected cells. The GREEN-B channel (525/30 filter) was used to detect GFP.

**Q.** Which Km (FES^WT; FES^WT, TR-FRET, 60 min, read-out: ATP KM) does the source give for `Nc1ncnc2c1ncn2[C@@H]1O[C@H](COP(=O)(O)OP(=O)(O)OP(=O)(O)O)[C@@H](O)[C@H]1O` [ATP] here?
**A.** The Km was 1.9 µM.

**Q.** What about the Km (FER^WT; read-out: ATP KM, FER^WT) of the same compound?
**A.** Its Km is 11 µM.

**Q.** `COc1ccccc1Nc1ncc(Cl)c(Nc2ccccc2S(=O)(=O)C(C)C)n1` [Compound 2] was tested. Which IC50 (FES^WT) did it give?
**A.** Its IC50 is 50.1 nM.

**Q.** What about the IC50 (FER^WT) of the same compound?
**A.** Its IC50 is 5.01 nM.

**Q.** Which results are given for `C=CC(=O)Nc1ccccc1Nc1nc(Nc2ccccc2OC)ncc1Cl` [Compound 4]?
**A.** IC50 (FES^WT): 2000 nM; IC50 (FER^WT): 200 nM

**Q.** `CCC(=O)Nc1ccccc1Nc1nc(Nc2ccccc2OC)ncc1Cl` [Compound 5] was tested. Which IC50 (FES^WT) did it give?
**A.** The IC50 was greater than 10000 nM.

**Q.** And the IC50 (FER^WT)?
**A.** The IC50 was 126 nM.

**Q.** For `COc1cc(Nc2ncc(F)c(Nc3ccc4c(n3)NC(=O)C(C)(C)O4)n2)cc(OC)c1OC` [Compound R406, R406], which Phagocytic index ([1]; Figure 7i, replicates) is on record?
**A.** The Phagocytic index was 212.415 and 224.559 and 218.427 and 271.225 and 264.489.

**Q.** And the Phagocytosis ([1]; R406 1 µM)?
**A.** Its Phagocytosis is “reduced phagocytosis to similar levels as observed for WEL028”.

**Q.** With `COc1ccc2c(c1)CC[C@@H]1[C@@H]2CC[C@]2(C)[C@@H](NCCCCCCN3C(=O)C=CC3=O)CC[C@@H]12` [Compound U-73122, U-73122] as the compound, how does the Phagocytic index ([1]; Figure 7i, replicates) read?
**A.** Its Phagocytic index is 64.8265 and 82.4025 and 81.0921 and 67.7147 and 64.5235.

**Q.** Which Phagocytic index ([1]; Figure 7i, replicates) does the source give for `C=C1[C@@H](C)[C@H]2[C@H](Cc3ccccc3)NC(=O)[C@]23[C@H](OC(C)=O)/C=C/[C@@](C)(O)C(=O)[C@@H](C)C/C=C/[C@H]3[C@@H]1O` [Cytochalasin D] here?
**A.** Its Phagocytic index is 55.7493 and 57.2763 and 70.3881 and 51.4867 and 48.2922.

**Q.** What about the Phagocytic index ([1]; MOI 0, Sup. Fig. 15d) of the same compound?
**A.** Its Phagocytic index is 8.168 and 11.9502 and 9.328.

**Q.** And the Phagocytic index ([1]; MOI 5, Sup. Fig. 15d)?
**A.** Its Phagocytic index is 77.8958 and 83.9457 and 75.261.

**Q.** What about the Phagocytic index ([1]; MOI 10, Sup. Fig. 15d) of the same compound?
**A.** The Phagocytic index was 109.345 and 104.624 and 85.7245.

**Q.** And the Phagocytic index ([1]; MOI 30, Sup. Fig. 15d)?
**A.** Its Phagocytic index is 212.699 and 198.296 and 185.432.

**Q.** What about the Phagocytic index ([1]; MOI 50, Sup. Fig. 15d) of the same compound?
**A.** Its Phagocytic index is 255.429 and 327.443 and 225.712.

**Q.** What about the “GFP-positive cells (%)” value ([1]; infection time 0 min) of the same compound?
**A.** Its value is 14.1178% and 22.6106% and 27.9257%.

**Q.** And the “Mean GFP intensity (RFU)” value ([1]; infection time 0 min)?
**A.** Its value is 245.785 RFU and 271.934 RFU and 267.216 RFU.

**Q.** And the “GFP-positive cells (%)” value ([1]; infection time 15 min)?
**A.** The value was 27.3639% and 36.225% and 38.7869%.

**Q.** What about the “Mean GFP intensity (RFU)” value ([1]; infection time 15 min) of the same compound?
**A.** The value was 283.565 RFU and 293.305 RFU and 282.675 RFU.

**Q.** And the Phagocytic index ([1]; infection time 15 min, Sup. Fig. 15c)?
**A.** The Phagocytic index was 77.5947 and 106.25 and 109.641.

**Q.** And the “GFP-positive cells (%)” value ([1]; infection time 30 min)?
**A.** The value was 33.857% and 41.6734% and 39.0238%.

**Q.** And the “Mean GFP intensity (RFU)” value ([1]; infection time 30 min)?
**A.** Its value is 270.952 RFU and 276.074 RFU and 268.61 RFU.

**Q.** And the Phagocytic index ([1]; infection time 30 min, Sup. Fig. 15c)?
**A.** The Phagocytic index was 91.7362 and 115.049 and 104.822.

**Q.** And the “GFP-positive cells (%)” value ([1]; infection time 60 min)?
**A.** The value was 50.1058% and 58.9504% and 42.1365%.

**Q.** What about the “Mean GFP intensity (RFU)” value ([1]; infection time 60 min) of the same compound?
**A.** The value was 234.066 RFU and 238.429 RFU and 237.207 RFU.

**Q.** And the Phagocytic index ([1]; infection time 60 min, Sup. Fig. 15c)?
**A.** The Phagocytic index was 117.281 and 140.555 and 99.951.
